Results from patent US20150291598A1 (NOVARTIS AG, priority 2012, published 2015).

test system: P. falciparum (NF54 or 3D7 strain); experiment: Assay for P. falciparum proliferation in infected human blood cells (SYBR Green); assay type: cell-based, Plasmodium falciparum; details: Plasmodium falciparum, 3D7|NF54, Erythrocyte, in Homo sapiens, 72 h, NF54 or 3D7 infected human erythrocytes, 72 hours; read-out: EC50 (nM), inhibitory efficacy in delaying P. falciparum proliferation in infected human blood cells
Method in brief: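 Infected erythrocytes (NF54 or 3D7; final 2.5% hematocrit, 0.3% parasitemia) were incubated with compounds for 72 h at 37 °C in low oxygen (3% O2, 4% CO2, 93% N2).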

For `CN(C(=O)c1cn2c(-c3ccc(S(N)(=O)=O)cc3)cnc2cn1)c1ccc(C#N)cc1` [Compound 148], which EC50 is on record?
The EC50 was 1360 nM.

same assay, conditions: Plasmodium falciparum, Erythrocyte, 72 h, NF54 or 3D7 infected human erythrocytes, 72 hours; read-out: EC50 (nM), inhibitory efficacy in delaying P. falciparum proliferation in infected human blood cells

How did the EC50 turn out when `CN(C(=O)c1cn2c(-c3ccc(C(C)(F)F)cc3)cnc2cn1)c1ccc(C#N)cc1` [Compound 75, N-(4-cyanophenyl)-3-[4-(1,1-difluoroethyl)phenyl]-N-methylimidazo[1,2-a]pyrazine-6-carboxamide] was run?
Its EC50 is 37 nM.

With `CN(Cc1cn2c(-c3ccc(-c4nnc(N)s4)cc3)cnc2cn1)c1ccc(C#N)cc1` [Compound 25, 4-[({3-[4-(5-amino-1,3,4-thiadiazol-2-yl)phenyl]imidazo[1,2-a]pyrazin-6-yl}methyl)(methyl)amino]benzonitrile] as the molecule, how does the EC50 read?
Its EC50 is 6 nM.

How did the EC50 turn out when `CN(Cc1cn2c(-c3ccc(C(F)(F)F)cc3)cnc2cn1)c1ccc(Cl)nc1` [Compound 231, 6-chloro-N-methyl-N-({3-[4-(trifluoromethyl)phenyl]imidazo[1,2-a]pyrazin-6-yl}methyl)pyridin-3-amine] was run?
Its EC50 is 74 nM.

For `CN(C(=O)c1cn2c(-c3ccc(OC(F)F)cc3)cnc2cn1)c1ccc(F)cc1` [Compound 433, 3-[4-(difluoromethoxy)phenyl]-N-(4-fluorophenyl)-N-methylimidazo[1,2-a]pyrazine-6-carboxamide], which EC50 is on record?
Its EC50 is 31 nM.

With `CN(C(=O)c1cn2c(-c3ccc(C(F)(F)F)cc3)cnc2cn1)c1cncc(Cl)c1` [Compound 355, N-(5-chloropyridin-3-yl)-N-methyl-3-[4-(trifluoromethyl)phenyl]imidazo[1,2-a]pyrazine-6-carboxamide] as the molecule, how does the EC50 read?
The EC50 was 2120 nM.

How did the EC50 turn out when `CN(C(=O)c1cn2c(-c3ccc(Cl)c(F)c3)cnc2cn1)c1ccc(C#N)cc1` [Compound 71, 3-(4-chloro-3-fluorophenyl)-N-(4-cyanophenyl)-N-methylimidazo[1,2-a]pyrazine-6-carboxamide] was run?
The EC50 was 1300 nM.

`CN(C(=O)c1cn2c(-c3ccc(NC(C)(C)CN)cc3)cnc2cn1)c1ccc(C#N)cc1` [Compound 324, 3-{4-[(1-amino-2-methylpropan-2-yl)amino]phenyl}-N-(4-cyanophenyl)-N-methylimidazo[1,2-a]pyrazine-6-carboxamide] was tested. Which EC50 did it give?
Its EC50 is 1230 nM.

With `N#Cc1ccc(N(CCC2CCOCC2)C(=O)c2cn3c(-c4ccc(C(F)(F)F)cc4)cnc3cn2)cc1` [Compound 133, N-(4-cyanophenyl)-N-[2-(oxan-4-yl)ethyl]-3-[4-(trifluoromethyl)phenyl]imidazo[1,2-a]pyrazine-6-carboxamide] as the molecule, how does the EC50 read?
Its EC50 is 338 nM.

With `O=C(Nc1ccc(S(=O)(=O)Nc2nccs2)cc1)c1cn2c(-c3ccc(C(F)(F)F)cc3)cnc2cn1` [Compound 406, N-{4-[(1,3-thiazol-2-yl)sulfamoyl]phenyl}-3-[4-(trifluoromethyl)phenyl]imidazo[1,2-a]pyrazine-6-carboxamide] as the molecule, how does the EC50 read?
The EC50 was > 8860 nM.

Which EC50 does the source give for `CC(=O)Nc1ccc(-c2cnc3cnc(C(=O)N(C)c4ccc(C)cn4)cn23)cc1` [Compound 361, 3-(4-acetamidophenyl)-N-methyl-N-(5-methylpyridin-2-yl)imidazo[1,2-a]pyrazine-6-carboxamide] here?
Its EC50 is 5150 nM.

`CN(C(=O)c1cn2c(-c3ccc(Cl)c(C(F)(F)F)c3)cnc2cn1)c1ccc(C#N)cc1` [Compound 60, 3-[4-chloro-3-(trifluoromethyl)phenyl]-N-(4-cyanophenyl)-N-methylimidazo[1,2-a]pyrazine-6-carboxamide] was tested. Which EC50 did it give?
The EC50 was 2630 nM.

`CN(Cc1cn2c(-c3ccc(OC(F)F)cc3)cnc2cn1)c1ccc(F)cc1` [Compound 21, N-({3-[4-(difluoromethoxy)phenyl]imidazo[1,2-a]pyrazin-6-yl}methyl)-4-fluoro-N-methylaniline] was tested. Which EC50 did it give?
The EC50 was 46 nM.

For `CN(C(=O)c1cn2c(-c3ccc(C(F)(F)F)cc3)cnc2cn1)c1ccncc1` [Compound 249, N-methyl-N-(pyridin-4-yl)-3-[4-(trifluoromethyl)phenyl]imidazo[1,2-a]pyrazine-6-carboxamide], which EC50 is on record?
Its EC50 is 635 nM.

With `CN(Cc1ccc(F)cc1)C(=O)c1cn2c(-c3ccc(C(F)(F)F)cc3)cnc2cn1` [Compound 192, N-[(4-fluorophenyl)methyl]-N-methyl-3-[4-(trifluoromethyl)phenyl]imidazo[1,2-a]pyrazine-6-carboxamide] as the molecule, how does the EC50 read?
Its EC50 is 7390 nM.

`Cc1ccc(-c2cnc3cnc(C(=O)N(C)c4ccc(F)c(F)c4)cn23)cc1` [Compound 135, N-(3,4-difluorophenyl)-N-methyl-3-(4-methylphenyl)imidazo[1,2-a]pyrazine-6-carboxamide] was tested. Which EC50 did it give?
The EC50 was 81 nM.

For `CN(C(=O)c1cn2c(-c3ccc(C(F)(F)F)cc3)cnc2cn1)c1ccc(Br)nc1` [Compound 58, N-(6-bromopyridin-3-yl)-N-methyl-3-[4-(trifluoromethyl)phenyl]imidazo[1,2-a]pyrazine-6-carboxamide], which EC50 is on record?
The EC50 was 1140 nM.

For `CC(C)(NC(=O)c1cn2c(-c3ccc(C(F)(F)F)cc3)cnc2cn1)c1ccc(F)cc1` [Compound 414, N-[2-(4-fluorophenyl)propan-2-yl]-3-[4-(trifluoromethyl)phenyl]imidazo[1,2-a]pyrazine-6-carboxamide], which EC50 is on record?
Its EC50 is > 7910 nM.

With `CN(C(=O)c1cn2c(-c3ccc(C(=O)NC4CC4)cc3)cnc2cn1)c1ccc(Cl)nc1` [Compound 343, N-(6-chloropyridin-3-yl)-3-[4-(cyclopropylcarbamoyl)phenyl]-N-methylimidazo[1,2-a]pyrazine-6-carboxamide] as the molecule, how does the EC50 read?
The EC50 was 6780 nM.

`CN(C(=O)c1cn2c(-c3ccc(Cl)c(C#N)c3)cnc2cn1)c1ccc(C#N)cc1` [Compound 155, 3-(4-chloro-3-cyanophenyl)-N-(4-cyanophenyl)-N-methylimidazo[1,2-a]pyrazine-6-carboxamide] was tested. Which EC50 did it give?
The EC50 was 2390 nM.

Which EC50 does the source give for `Cc1nc2cnc(C(=O)Nc3ccc(C#N)cc3)cn2c1-c1ccc(C(F)(F)F)cc1` [Compound 376, N-(4-cyanophenyl)-2-methyl-3-[4-(trifluoromethyl)phenyl]imidazo[1,2-a]pyrazine-6-carboxamide] here?
Its EC50 is 9490 nM.

Which EC50 does the source give for `CN(C(=O)c1cn2c(-c3ncccc3Cl)cnc2cn1)c1ccc(C#N)cc1` [Compound 354, 3-(3-chloropyridin-2-yl)-N-(4-cyanophenyl)-N-methylimidazo[1,2-a]pyrazine-6-carboxamide] here?
The EC50 was 6070 nM.

`CN(C)CCNC(=O)c1ccc(-c2cnc3cnc(C(=O)N(C)c4ccc(C#N)cc4)cn23)cc1` [Compound 291, N-(4-cyanophenyl)-3-(4-{[2-(dimethylamino)ethyl]carbamoyl}phenyl)-N-methylimidazo[1,2-a]pyrazine-6-carboxamide] was tested. Which EC50 did it give?
The EC50 was 1160 nM.

Which EC50 does the source give for `CN(C(=O)c1cn2c(-c3ccc4c(ccn4C)c3)cnc2cn1)c1ccc(F)c(F)c1` [Compound 127, N-(3,4-difluorophenyl)-N-methyl-3-(1-methyl-1H-indol-5-yl)imidazo[1,2-a]pyrazine-6-carboxamide] here?
The EC50 was 236 nM.

How did the EC50 turn out when `CN(C(=O)c1cn2c(-c3ccc(C(F)(F)F)cc3)cnc2cn1)c1ccc(Cl)nn1` [Compound 94, N-(6-chloropyridazin-3-yl)-N-methyl-3-[4-(trifluoromethyl)phenyl]imidazo[1,2-a]pyrazine-6-carboxamide] was run?
Its EC50 is > 10000 nM.

How did the EC50 turn out when `CN(C)c1ccc(-c2cnc3cnc(CN(C)c4ccc(C#N)cc4)cn23)cc1` [Compound 437, 4-[({3-[4-(dimethylamino)phenyl]imidazo[1,2-a]pyrazin-6-yl}methyl)(methyl)amino]benzonitrile] was run?
The EC50 was 176 nM.

Which EC50 does the source give for `Cc1ccc(N(C)Cc2cn3c(-c4ccc(C(F)F)cc4)cnc3cn2)nc1` [Compound 241, N-({3-[4-(difluoromethyl)phenyl]imidazo[1,2-a]pyrazin-6-yl}methyl)-N,5-dimethylpyridin-2-amine] here?
Its EC50 is 262 nM.

With `COC(=O)Nc1ccc(-c2cnc3cnc(C(=O)N(C)c4ccc(C#N)cc4)cn23)cn1` [Compound 260, methyl N-(5-{6-[(4-cyanophenyl)(methyl)carbamoyl]imidazo[1,2-a]pyrazin-3-yl}pyridin-2-yl)carbamate] as the molecule, how does the EC50 read?
The EC50 was 399 nM.

`CN(C(=O)c1cn2c(-c3ccc(Cl)cc3Cl)cnc2cn1)c1ccc(C#N)cc1` [Compound 20, N-(4-cyanophenyl)-3-(2,4-dichlorophenyl)-N-methylimidazo[1,2-a]pyrazine-6-carboxamide] was tested. Which EC50 did it give?
The EC50 was > 10000 nM.

How did the EC50 turn out when `CN(C(=O)c1cn2c(-c3ccc(-c4nnc(N)o4)cc3)cnc2cn1)c1ccc(Cl)cc1` [Compound 15, -[4-(5-amino-1,3,4-oxadiazol-2-yl)phenyl]-N-(4-chlorophenyl)-N-methylimidazo[1,2-a]pyrazine-6-carboxamide] was run?
Its EC50 is 29 nM.

How did the EC50 turn out when `CNc1nnc(-c2ccc(-c3cnc4cnc(C(=O)N(C)c5ccc(F)cc5)cn34)cc2)o1` [Compound 478, N-(4-fluorophenyl)-N-methyl-3-{4-[5-(methylamino)-1,3,4-oxadiazol-2-yl]phenyl}imidazo[1,2-a]pyrazine-6-carboxamide] was run?
The EC50 was 31 nM.

Which EC50 does the source give for `CN(C(=O)c1cn2c(-c3ccc(NCCN4CCOCC4)nc3)cnc2cn1)c1ccc(C#N)cc1` [Compound 400, -(4-cyanophenyl)-N-methyl-3-(6-{[2-(morpholin-4-yl)ethyl]amino}pyridin-3-yl)imidazo[1,2-a]pyrazine-6-carboxamide] here?
Its EC50 is 7850 nM.

How did the EC50 turn out when `CN(C(=O)c1cn2c(-c3ccc(C(F)(F)F)cc3)cnc2cn1)c1ccc(C2CCCC2)cn1` [Compound 412, N-(5-cyclopentylpyridin-2-yl)-N-methyl-3-[4-(trifluoromethyl)phenyl]imidazo[1,2-a]pyrazine-6-carboxamide] was run?
The EC50 was 7880 nM.

`CN(C(=O)c1cn2c(-c3ccc(-n4cccn4)cc3)cnc2cn1)c1ccc(F)c(F)c1` [Compound 144, N-(3,4-difluorophenyl)-N-methyl-3-[4-(1H-pyrazol-1-yl)phenyl]imidazo[1,2-a]pyrazine-6-carboxamide] was tested. Which EC50 did it give?
Its EC50 is 366 nM.

For `CN(C(=O)c1cn2c(-c3ccc4c(ccn4C)c3)cnc2cn1)c1ccc(Cl)nc1` [Compound 84, N-(6-chloropyridin-3-yl)-N-methyl-3-(1-methyl-1H-indol-5-yl)imidazo[1,2-a]pyrazine-6-carboxamide], which EC50 is on record?
Its EC50 is 1280 nM.

same assay, conditions: Plasmodium falciparum, Erythrocyte, infected human red blood cells; read-out: EC50, P. falciparum Proliferation Assay

With `CN(Cc1cn2c(-c3ccc(-c4nnc(N)s4)cc3)cnc2cn1)c1ccc(C#N)cc1` [Compound 25, 4-[({3-[4-(5-amino-1,3,4-thiadiazol-2-yl)phenyl]imidazo[1,2-a]pyrazin-6-yl}methyl)(methyl)amino]benzonitrile] as the molecule, how does the EC50 read?
Its EC50 is < 50 nM.

How did the EC50 turn out when `CNc1nnc(-c2ccc(-c3cnc4cnc(C(=O)N(C)c5ccc(F)cc5)cn34)cc2)o1` [Compound 478, N-(4-fluorophenyl)-N-methyl-3-{4-[5-(methylamino)-1,3,4-oxadiazol-2-yl]phenyl}imidazo[1,2-a]pyrazine-6-carboxamide] was run?
The EC50 was < 50 nM.
